From ChEMBL document CHEMBL1201862, “PubChem BioAssay data set” (2004)
Activity calls are given as the source filed them.

Tests used:
[1] = target: T1, Rac GTPase-activating protein 1 (Homo sapiens, UniProt Q9H0H5); assay: MgcRacGAP GTPase-activating activity inhibitors, confirmation, biochemical, ADP Hunter fluorescence, primary and confirmatory (AID 624330); format: functional
T1 sequence (Q9H0H5 whole entry): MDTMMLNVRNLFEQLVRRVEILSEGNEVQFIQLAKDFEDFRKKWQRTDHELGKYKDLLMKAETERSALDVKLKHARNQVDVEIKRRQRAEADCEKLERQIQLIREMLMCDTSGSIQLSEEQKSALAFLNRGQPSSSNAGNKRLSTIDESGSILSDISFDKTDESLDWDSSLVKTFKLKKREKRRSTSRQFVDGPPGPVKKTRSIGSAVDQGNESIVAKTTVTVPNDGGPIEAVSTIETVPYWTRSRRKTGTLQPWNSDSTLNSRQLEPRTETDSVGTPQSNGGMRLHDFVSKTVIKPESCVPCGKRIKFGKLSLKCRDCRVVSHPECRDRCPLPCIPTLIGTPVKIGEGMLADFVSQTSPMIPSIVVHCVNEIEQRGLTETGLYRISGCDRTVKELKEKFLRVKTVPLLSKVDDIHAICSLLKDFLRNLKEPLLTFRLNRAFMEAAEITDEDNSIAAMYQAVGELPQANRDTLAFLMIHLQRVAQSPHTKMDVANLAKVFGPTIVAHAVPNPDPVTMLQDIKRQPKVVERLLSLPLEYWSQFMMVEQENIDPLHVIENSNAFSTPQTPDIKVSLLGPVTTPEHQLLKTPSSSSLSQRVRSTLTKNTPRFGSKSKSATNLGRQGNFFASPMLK

[2] = target: T2, Protein Tat (Human immunodeficiency virus type 1 group M subtype B (isolate HXB2)(HIV-1), UniProt P04608); format: functional;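 also: tat binding to TAR RNA read out by fluorescence polarization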
T2 sequence (P04608 whole entry): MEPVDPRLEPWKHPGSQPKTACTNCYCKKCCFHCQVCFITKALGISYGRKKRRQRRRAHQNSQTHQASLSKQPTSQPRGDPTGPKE

[3] = target: NAD-dependent protein deacylase sirtuin-5, mitochondrial (Homo sapiens, UniProt Q9NXA8); assay: SIRT5 desuccinylase inhibitors, dose response, biochemical, fluorescence imaging, cherry-pick, set 5 (AID 720591);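 also: desuccinylation of succinyl peptide AMC substrate read as fluorescence after trypsin release; potency of inhibitors that lower fluorescence and may act on trypsin instead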
Chain of NAD-dependent protein deacylase sirtuin-5, mitochondrial (Q9NXA8 whole entry): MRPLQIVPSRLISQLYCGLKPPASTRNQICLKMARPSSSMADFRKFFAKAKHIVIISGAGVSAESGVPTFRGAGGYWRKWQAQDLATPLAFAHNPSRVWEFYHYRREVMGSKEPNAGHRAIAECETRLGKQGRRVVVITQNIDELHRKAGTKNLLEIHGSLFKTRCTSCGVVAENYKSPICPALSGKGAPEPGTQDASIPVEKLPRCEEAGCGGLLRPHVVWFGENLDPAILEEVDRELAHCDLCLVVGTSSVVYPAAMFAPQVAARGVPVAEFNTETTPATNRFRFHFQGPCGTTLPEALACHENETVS

[4] = HepG2 cell cytotoxicity, dose response, cytotoxicity control, cherry-picked samples (AID 1159577); format: functional, cell-based
[5] = P. falciparum Dd2 growth inhibitors, dose response, SYBR Green, cherry-picked samples (AID 1159567); format: functional, cell-based
[6] = LGR2 antagonists, dose response, cell-based, HEK293, CRE-luciferase reporter, cherry pick, set 2 (AID 743343); format: functional;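 also: transfected cells were stimulated with diluted bursicon conditioned medium after compound addition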
[7] = HEK293 cell cytotoxicity, dose response, cytotoxicity control, plate reader, cherry-picked samples (AID 743446); format: functional, cell-based
[8] = MC4R antagonists, dose response, counter-screen for LGR2 antagonist project, cell-based, plate reader, cherry pick (AID 743444); format: functional;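 also: transfected HEK 293 cells stimulated with alpha-MSH peptide; potency of inhibitors of the alpha-MSH evoked signal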
[9] = target: T3, Oxysterols receptor LXR-beta (Homo sapiens, UniProt P55055); format: functional, cell-based;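 also: agonist activity at LXR measured by a cell-based luminescence readout across a dose range, run as a counterscreen for daf-12 agonists; potency for activation of Gal4-LXR reporter so compounds are agonists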
T3 sequence (P55055 whole entry): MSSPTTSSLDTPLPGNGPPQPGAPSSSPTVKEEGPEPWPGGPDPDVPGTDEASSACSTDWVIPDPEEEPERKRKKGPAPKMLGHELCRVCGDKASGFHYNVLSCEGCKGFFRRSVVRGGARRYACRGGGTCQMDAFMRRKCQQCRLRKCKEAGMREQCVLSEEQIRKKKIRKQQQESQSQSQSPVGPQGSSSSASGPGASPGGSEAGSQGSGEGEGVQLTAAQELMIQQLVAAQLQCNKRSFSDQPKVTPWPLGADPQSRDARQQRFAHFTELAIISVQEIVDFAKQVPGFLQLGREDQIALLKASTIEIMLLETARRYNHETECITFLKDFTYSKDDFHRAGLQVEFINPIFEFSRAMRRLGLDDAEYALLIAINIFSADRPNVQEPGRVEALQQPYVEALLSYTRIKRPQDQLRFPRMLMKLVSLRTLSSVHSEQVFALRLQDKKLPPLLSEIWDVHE

[10] = target: T4, Caspase-3 (Homo sapiens, UniProt P42574); format: functional;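 also: Dose-response selectivity test against caspase-3 for candidate inhibitors of sentrin-specific proteases (SENPs)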
T4 sequence (P42574 whole entry): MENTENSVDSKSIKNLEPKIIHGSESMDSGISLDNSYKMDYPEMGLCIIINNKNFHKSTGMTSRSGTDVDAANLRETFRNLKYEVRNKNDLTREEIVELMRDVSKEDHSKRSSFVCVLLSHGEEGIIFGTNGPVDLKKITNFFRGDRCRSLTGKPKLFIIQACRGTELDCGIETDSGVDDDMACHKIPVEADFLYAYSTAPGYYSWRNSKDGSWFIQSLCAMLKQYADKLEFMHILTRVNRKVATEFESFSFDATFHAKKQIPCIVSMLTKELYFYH

[11] = target: T5, Sentrin-specific protease 7 (Homo sapiens, UniProt Q9BQF6); format: functional;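 also: Luminescence-based dose-response confirmation of ultra-high-throughput screening hits, measuring inhibition of SENP7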
T5 sequence (Q9BQF6 whole entry): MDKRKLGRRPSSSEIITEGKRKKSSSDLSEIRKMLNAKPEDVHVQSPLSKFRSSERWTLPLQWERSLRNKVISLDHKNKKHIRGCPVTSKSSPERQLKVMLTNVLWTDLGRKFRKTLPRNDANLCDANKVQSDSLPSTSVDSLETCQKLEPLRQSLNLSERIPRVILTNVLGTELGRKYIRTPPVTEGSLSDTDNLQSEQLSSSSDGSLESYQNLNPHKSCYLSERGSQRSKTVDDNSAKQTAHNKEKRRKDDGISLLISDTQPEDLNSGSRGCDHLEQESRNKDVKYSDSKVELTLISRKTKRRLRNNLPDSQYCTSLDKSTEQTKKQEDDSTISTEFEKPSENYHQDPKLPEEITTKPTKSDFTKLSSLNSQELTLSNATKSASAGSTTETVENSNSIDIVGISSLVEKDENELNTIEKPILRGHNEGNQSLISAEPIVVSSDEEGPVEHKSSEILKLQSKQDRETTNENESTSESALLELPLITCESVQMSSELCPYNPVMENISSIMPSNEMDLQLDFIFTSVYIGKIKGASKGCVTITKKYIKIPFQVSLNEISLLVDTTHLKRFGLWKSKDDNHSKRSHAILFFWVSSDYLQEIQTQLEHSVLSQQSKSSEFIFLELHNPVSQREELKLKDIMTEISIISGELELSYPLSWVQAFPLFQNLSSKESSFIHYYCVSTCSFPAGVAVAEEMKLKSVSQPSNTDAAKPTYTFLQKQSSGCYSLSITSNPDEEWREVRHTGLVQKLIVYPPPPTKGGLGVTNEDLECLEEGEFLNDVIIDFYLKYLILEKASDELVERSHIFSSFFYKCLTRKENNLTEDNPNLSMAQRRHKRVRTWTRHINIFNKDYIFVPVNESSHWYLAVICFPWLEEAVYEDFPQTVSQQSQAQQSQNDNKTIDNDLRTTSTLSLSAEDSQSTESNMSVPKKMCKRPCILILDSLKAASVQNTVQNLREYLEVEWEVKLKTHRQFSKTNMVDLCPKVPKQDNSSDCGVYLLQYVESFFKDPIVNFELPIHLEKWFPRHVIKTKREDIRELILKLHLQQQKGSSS

[12] = target: T6, Sentrin-specific protease 6 (Homo sapiens, UniProt Q9GZR1); format: functional;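 also: Luminescence-based dose-response confirmatory assay of SENP6 inhibition, following up an ultra-high-throughput screen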
T6 sequence (Q9GZR1 whole entry): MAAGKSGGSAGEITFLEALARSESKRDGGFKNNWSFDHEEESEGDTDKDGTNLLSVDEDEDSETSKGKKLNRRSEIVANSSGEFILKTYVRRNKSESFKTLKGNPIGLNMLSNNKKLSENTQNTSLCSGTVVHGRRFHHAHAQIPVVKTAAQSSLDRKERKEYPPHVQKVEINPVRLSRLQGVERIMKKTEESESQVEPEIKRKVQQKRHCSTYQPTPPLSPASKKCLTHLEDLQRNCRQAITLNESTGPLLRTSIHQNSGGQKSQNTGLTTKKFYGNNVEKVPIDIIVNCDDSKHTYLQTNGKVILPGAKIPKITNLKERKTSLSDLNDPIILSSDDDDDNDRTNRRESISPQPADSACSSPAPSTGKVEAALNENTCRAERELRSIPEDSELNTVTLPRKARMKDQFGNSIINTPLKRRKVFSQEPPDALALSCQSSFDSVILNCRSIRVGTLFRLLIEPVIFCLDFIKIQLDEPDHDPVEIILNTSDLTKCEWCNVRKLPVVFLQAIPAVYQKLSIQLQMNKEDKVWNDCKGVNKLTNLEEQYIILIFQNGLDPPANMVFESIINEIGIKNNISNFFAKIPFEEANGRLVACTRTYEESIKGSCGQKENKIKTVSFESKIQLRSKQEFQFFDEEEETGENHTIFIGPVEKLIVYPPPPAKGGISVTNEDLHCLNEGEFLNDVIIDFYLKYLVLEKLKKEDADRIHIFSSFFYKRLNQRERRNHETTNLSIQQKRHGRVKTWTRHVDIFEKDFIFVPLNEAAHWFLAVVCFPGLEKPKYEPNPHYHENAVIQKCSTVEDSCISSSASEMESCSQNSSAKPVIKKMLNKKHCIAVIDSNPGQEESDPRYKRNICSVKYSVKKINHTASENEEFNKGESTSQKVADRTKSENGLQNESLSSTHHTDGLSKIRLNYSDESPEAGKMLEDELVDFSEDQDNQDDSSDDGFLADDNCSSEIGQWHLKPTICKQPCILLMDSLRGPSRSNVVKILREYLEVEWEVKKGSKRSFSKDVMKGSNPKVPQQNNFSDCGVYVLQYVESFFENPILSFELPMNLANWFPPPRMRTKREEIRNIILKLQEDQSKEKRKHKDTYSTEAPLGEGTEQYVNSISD

[13] = target: T7, Sentrin-specific protease 8 (Homo sapiens, UniProt Q96LD8); format: functional;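 also: luminescence read-out of SENP8 inhibition, dose-response confirmation following an ultra-high-throughput screen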
T7 sequence (Q96LD8 whole entry): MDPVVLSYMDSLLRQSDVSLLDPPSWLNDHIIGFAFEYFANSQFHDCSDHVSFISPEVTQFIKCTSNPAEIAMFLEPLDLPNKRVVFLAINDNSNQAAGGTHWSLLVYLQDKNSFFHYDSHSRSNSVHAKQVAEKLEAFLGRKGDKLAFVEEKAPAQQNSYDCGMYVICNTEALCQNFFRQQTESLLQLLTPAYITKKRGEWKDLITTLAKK

[14] = target: T3, Oxysterols receptor LXR-beta; assay: LXR agonists, Gal4 luciferase reporter, dose response, counter-screen for ssDAF-12 agonist project, cell-based, luminescence, HEK293, S. stercoralis campaign (AID 720737); format: functional; conditions: read-out: IC50 (the source's name)
[15] = Luminescence-based cell-based high throughput dose response assay to identify activators of the DAF-12 from the parasite S. stercoralis (ssDAF-12).; format: functional
[16] = test system: HEK293; assay: cells; format: functional, cell-based; conditions: Homo sapiens
[17] = target: T8, Nuclear receptor subfamily 0 group B member 1 (Homo sapiens, UniProt P51843); assay: Luminescence-based cell-based high throughput dose response assay for inhibitors of the orphan nuclear receptor subfamily 0, group B, member 1 (DAX1; NR0B1). [Related pubchem assays (depositor defined):AID504766, AID504790]; format: functional
T8 sequence (P51843 whole entry): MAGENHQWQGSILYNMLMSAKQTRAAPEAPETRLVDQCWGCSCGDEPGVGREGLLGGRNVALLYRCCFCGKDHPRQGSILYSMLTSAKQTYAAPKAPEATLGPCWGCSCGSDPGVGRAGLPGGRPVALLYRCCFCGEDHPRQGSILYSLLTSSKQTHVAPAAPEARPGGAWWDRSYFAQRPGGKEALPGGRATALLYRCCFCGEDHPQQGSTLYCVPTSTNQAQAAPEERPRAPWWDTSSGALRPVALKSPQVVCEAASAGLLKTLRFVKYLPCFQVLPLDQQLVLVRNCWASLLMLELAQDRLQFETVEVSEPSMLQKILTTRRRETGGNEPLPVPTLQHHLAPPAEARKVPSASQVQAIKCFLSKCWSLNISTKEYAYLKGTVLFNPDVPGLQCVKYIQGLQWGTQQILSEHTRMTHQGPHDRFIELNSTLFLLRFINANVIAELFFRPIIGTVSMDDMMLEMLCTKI

[18] = target: T9, Mannose-6-phosphate isomerase (Homo sapiens, UniProt P34949); assay: human PMI inhibitors, high substrate, primary screen, biochemical, fluorescence intensity, high mannose 6-phosphate (AID 1220)
T9 sequence (P34949 whole entry): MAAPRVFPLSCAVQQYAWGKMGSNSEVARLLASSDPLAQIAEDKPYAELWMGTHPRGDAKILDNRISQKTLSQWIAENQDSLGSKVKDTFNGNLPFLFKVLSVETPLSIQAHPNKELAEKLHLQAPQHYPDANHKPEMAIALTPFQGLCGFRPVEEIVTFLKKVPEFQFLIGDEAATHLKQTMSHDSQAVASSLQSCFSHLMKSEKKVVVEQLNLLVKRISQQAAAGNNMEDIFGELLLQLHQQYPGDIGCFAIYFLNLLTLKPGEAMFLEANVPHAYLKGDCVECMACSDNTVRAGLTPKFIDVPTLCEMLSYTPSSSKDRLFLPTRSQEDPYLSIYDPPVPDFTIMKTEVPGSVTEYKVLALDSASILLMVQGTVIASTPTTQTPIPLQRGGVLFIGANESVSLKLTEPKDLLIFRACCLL

For `Cc1cc(C(=O)NNC(=O)/C=C/c2ccco2)c(C)o1`, the IC50 [1] was 125 µM (active) and the IC50 [2] was > 100 µM (active).
With `Cc1cccc2sc(NC(=O)C3CC3)nc12` the AC50 [3] was > 30 µM (inactive).
With `COc1cccc(S(=O)(=O)N2CCCCN3[C@@H](CO)[C@@H](c4ccc(C5=CCCCC5)cc4)[C@@H]3C2)c1` the AC50 [4] was 10.8 µM (active) and the AC50 [5] was 1.62 µM (active).
In the case of `Cc1ccc(C)c(N2CCN(C(=O)c3cccn4c(=O)c5sccc5nc34)CC2)c1`, the AC50 [3] is reported as 26.9 µM (active).
In the case of `O=C(c1ccco1)N1CCN(C(c2ccccn2)c2nnnn2C2CCCC2)CC1` (stereo unspecified), the IC50 [2] is reported as > 100 µM (active).
In the case of `O=C(COC(=O)c1nnc(O)c2ccccc12)Nc1ccccc1`, the AC50 [3] is reported as > 30 µM (inactive).
With `Clc1cccc(N2Cc3cc(-c4ccccc4)ccc3-n3nncc3C2)c1` the AC50 [6] was 29.4 µM (active), the AC50 [7] was 20.7 µM (active) and the AC50 [8] was 34.1 µM (active).
In the case of `CCOC(=O)c1c(C)[nH]c(N=Nc2cccc(OC)c2)c1C`, the EC50 [9] is reported as > 67.5 µM (inactive), the IC50 [10] is reported as 29.1 µM (active) and the IC50 [11] is reported as 3.75 µM (active). For the same compound, the IC50 [12] was 11.7 µM (active) and the IC50 [13] was 17.3 µM (active).
For `COc1ccc(Cl)cc1C(=O)Nc1ccc2c(c1)OCCO2`, the EC50 [14] was > 67.5 µM (inactive), the IC50 [15] was > 67.5 µM (inactive) and the IC50 [16] was > 67.5 µM (inactive). For the same compound, the IC50 [17] was > 67.5 µM (inactive).
In the case of `CCN(CC)c1ccc(N/C=C2\C(=O)NC(=O)N(CCc3ccc(OC)c(OC)c3)C2=O)cc1`, the IC50 [18] is reported as > 50 µM (not active).
